Experimental data reported in patent US9296758B2, “2-quinolinyl-acetic acid derivatives as HIV antiviral compounds” (GILEAD SCIENCES, INC., priority 2010, dated 2016).

Tested on: HIV-IIIb
Assay: Test A: Antiviral Assays in MT4 Cells
Format: cell-based
Conditions: MT-4 cells infected with HIV-IIIb (0.004 m.o.i.), 5 days of incubation, CellTiter-Glo chemiluminescence readout
Experimental: Test A: Antiviral Assays in MT4 Cells For the antiviral assay utilizing MT-4 cells, 0.4 μL of 189X test concentration of 3-fold serially diluted compound in DMSO was added to 40 μL of cell growth medium (RPMI 1640, 10% FBS, 1% penicillin/Streptomycin, 1% L-Glutamine, 1% HEPES) in each well of 384-well assay plates (10 concentrations) in quadruplicate. 1 mL aliquots of 2×10e6 MT-4 cells are pre-infected for 1 and 3 hrs respectively, @ 37° C. with 25 μL (MT4) or of either cell growth medium (mock-infected) or a fresh 1:250 dilution of an HIV-IIIb concentrated ABI stock (0.004 m.o.i. for MT4 cells). Infected and uninfected cells are diluted in cell growth medium and 35 uL of 2000 (for MT4) cells is added to each well of the assay plates. Assay plates were then incubated in a 37° C. incubator. After 5 days of incubation, 25 μl of 2× concentrated CellTiter-Glo™ Reagent (catalog #G7573, Promega Biosciences, Inc., Madison, Wis.) was added to each well of the assay plate. Cell lysis was carried out by incubating at room temperature for 2-3 min and then chemiluminescence was read using the Envision reader (PerkinElmer).

[1] = Human immunodeficiency virus 1, IIIB, MT4, 120 h

Compound | EC50 [1] [nM] | EC50 [nM]
Cc1cc2nc(-c3cncn3C)ccc2c(-c2ccc3c4c(ccnc24)CCO3)c1[C@H](OC(C)(C)C)C(=O)O (atropisomer, axis not shown) [Compound 83, (S)-2-tert-Butoxy-2-((R)-5-(2,3-dihydropyrano[4,3,2-de]quinolin-7-yl)-7-methyl-2-(1-methyl-1H-imidazol-5-yl)quinolin-6-yl)acetic acid] | 42 | –
Cc1cc2nc(-c3nccn3C)ccc2c(-c2ccc3c4c(ccnc24)CCO3)c1[C@H](OC(C)(C)C)C(=O)O (atropisomer, axis not shown) [Compound 84, (S)-2-tert-Butoxy-2-((R)-5-(2,3-dihydropyrano[4,3,2-de]quinolin-7-yl)-7-methyl-2-(1-methyl-1H-imidazol-2-yl)quinolin-6-yl)acetic acid] | 330 | –
Cc1cc2nc(-c3cn(C)cn3)ccc2c(-c2ccc3c4c(ccnc24)CCO3)c1[C@H](OC(C)(C)C)C(=O)O (atropisomer, axis not shown) [Compound 85, (S)-2-tert-butoxy-2-((R)-5-(2,3-dihydropyrano[4,3,2-de]quinolin-7-yl)-7-methyl-2-(1-methyl-1H-imidazol-4-yl)quinolin-6-yl)acetic acid] | 131 | –
Cc1cc2nc(N3CCC3)ccc2c(-c2ccc3c4c(ccnc24)CCO3)c1[C@H](OC(C)(C)C)C(=O)O (atropisomer, axis not shown) [Compound 95, (S)-2-((R)-2-(azetidin-1-yl)-5-(2,3-dihydropyrano[4,3,2-de]quinolin-7-yl)-7-methylquinolin-6-yl)-2-tert-butoxyacetic acid] | 54 | –
Cc1ccc2c(-c3ccc4c(c3Cl)NCCO4)c([C@H](OC(C)(C)C)C(=O)O)c(C)cc2n1 (atropisomer, axis not shown) [Compound 105] | – | 105
Cc1ccc2c(-c3ccc4c5c(cccc35)CCO4)c([C@H](OC(C)(C)C)C(=O)O)c(C)cc2n1 (single isomer, unassigned) [Compound 102A] | – | 13
Cc1ccc2c(-c3ccc4c5c(cccc35)CCO4)c([C@H](OC(C)(C)C)C(=O)O)c(C)cc2n1 (single isomer, unassigned) [Compound 102B] | – | 110
Cc1ccc2c(-c3ccc(Cl)cc3)c([C@H](OC(C)(C)C)C(=O)O)c(Cl)cc2n1 [Compound 1L, (S)-2-tert-butoxy-2-(7-chloro-5-(4-chlorophenyl)-2-methylquinolin-6-yl)acetic acid] | 170 | –
Cc1ccc2c(-c3ccc(Cl)cc3)c([C@H](OC(C)(C)C)C(=O)O)c(C)cc2n1 [Compound 2K, (S)-2-tert-butoxy-2-(5-(4-chlorophenyl)-2,7-dimethylquinolin-6-yl)acetic acid] | 55 | –
Cc1cc2ncccc2c(-c2ccc(Cl)cc2)c1[C@H](OC(C)(C)C)C(=O)O [Compound 3L, (S)-2-tert-butoxy-2-(5-(4-chlorophenyl)-7-methylquinolin-6-yl)acetic acid] | 1060 | –
Cc1cc2cccnc2c(-c2ccc(Cl)cc2)c1[C@H](OC(C)(C)C)C(=O)O [Compound 4J, (S)-2-tert-butoxy-2-(8-(4-chlorophenyl)-6-methylquinolin-7-yl)acetic acid] | 543 | –
Cc1ccc2c(-c3ccc(Cl)cc3Cl)c([C@H](OC(C)(C)C)C(=O)O)c(C)cc2n1 [Compound 5J, (S)-2-tert-butoxy-2-((S)-5-(2,4-dichlorophenyl)-2,7-dimethylquinolin-6-yl)acetic acid] | – | 19
Cc1ccc2c(-c3ccc4c5c(ccnc35)CCO4)c([C@H](OC(C)(C)C)C(=O)O)c(C)cc2n1 [Compound 6D, (S)-2-tert-butoxy-2-((R)-5-(2,3-dihydropyrano[4,3,2-de]quinolin-7-yl)-2,7-dimethylquinolin-6-yl)acetic acid] | – | 20
Cc1cc2nc(C(F)(F)F)ccc2c(-c2ccc(Cl)cc2)c1[C@H](OC(C)(C)C)C(=O)O [Compound 7J, (S)-2-tert-butoxy-2-(5-(4-chlorophenyl)-7-methyl-2-(trifluoromethyl)quinolin-6-yl)acetic acid] | 160 | –
Cc1cc2[nH]c(=O)ccc2c(-c2ccc(Cl)cc2)c1[C@H](OC(C)(C)C)C(=O)O [Compound 8L, (S)-2-tert-butoxy-2-(5-(4-chlorophenyl)-7-methyl-2-oxo-1,2-dihydroquinolin-6-yl)acetic acid] | 559 | –
Cc1cc2nc(CN(C)C)ccc2c(-c2ccc(Cl)cc2)c1[C@H](OC(C)(C)C)C(=O)O [Compound 9, (S)-2-tert-butoxy-2-(5-(4-chlorophenyl)-2-((dimethylamino)methyl)-7-methylquinolin-6-yl)acetic acid] | 173 | –

Compound | EC50 [1] [nM] | EC50 [nM]
CNCc1ccc2c(-c3ccc(Cl)cc3)c([C@H](OC(C)(C)C)C(=O)O)c(C)cc2n1 [Compound 10, (S)-2-tert-Butoxy-2-(5-(4-chlorophenyl)-7-methyl-2-((methylamino)methyl)quinolin-6-yl)acetic acid] | 897 | –
Cc1cc2nc(CN3CCCCC3)ccc2c(-c2ccc(Cl)cc2)c1[C@H](OC(C)(C)C)C(=O)O [Compound 11, (S)-2-tert-Butoxy-2-(5-(4-chlorophenyl)-7-methyl-2-(piperidin-1-ylmethyl)quinolin-6-yl)acetic acid] | 479 | –
COC(=O)c1ccc2c(-c3ccc(Cl)cc3)c([C@H](OC(C)(C)C)C(=O)O)c(C)cc2n1 [Compound 12, (S)-2-tert-Butoxy-2-(5-(4-chlorophenyl)-2-(methoxycarbonyl)-7-methylquinolin-6-yl)acetic acid] | 210 | –
CCOC(=O)c1ccc2c(-c3ccc(Cl)cc3)c([C@H](OC(C)(C)C)C(=O)O)c(C)cc2n1 [Compound 13, (S)-2-tert-Butoxy-2-(5-(4-chlorophenyl)-2-(ethoxycarbonyl)-7-methylquinolin-6-yl)acetic acid] | 150 | –
Cc1cc2nc(CN(C)c3ccccc3)ccc2c(-c2ccc(Cl)cc2)c1[C@H](OC(C)(C)C)C(=O)O [Compound 14, (S)-2-tert-Butoxy-2-(5-(4-chlorophenyl)-7-methyl-2-((methyl(phenyl)amino)methyl)quinolin-6-yl)acetic acid] | 983 | –
CCOCc1ccc2c(-c3ccc(Cl)cc3)c([C@H](OC(C)(C)C)C(=O)O)c(C)cc2n1 [Compound 15, (S)-2-tert-butoxy-2-(5-(4-chlorophenyl)-2-(ethoxymethyl)-7-methylquinolin-6-yl)acetic acid] | 334 | –
Cc1cc2nc(C(=O)N(C)C)ccc2c(-c2ccc(Cl)cc2)c1[C@H](OC(C)(C)C)C(=O)O [Compound 16, (S)-2-tert-Butoxy-2-(5-(4-chlorophenyl)-2-(dimethylcarbamoyl)-7-methylquinolin-6-yl)acetic acid] | 220 | –
Cc1cc2nc(C(=O)N(C)c3ccccc3)ccc2c(-c2ccc(Cl)cc2)c1[C@H](OC(C)(C)C)C(=O)O [Compound 17, (S)-2-tert-butoxy-2-(5-(4-chlorophenyl)-7-methyl-2-(methyl(phenyl)carbamoyl)quinolin-6-yl)acetic acid] | 359 | –
Cc1ccc2c(-c3ccc(-c4ccccc4)cc3)c(C(OC(C)(C)C)C(=O)O)c(C)cc2n1 (centres unmarked) [Compound 19, 2-(5-(Biphenyl-4-yl)-2,7-dimethylquinolin-6-yl)-2-tert-butoxyacetic acid] | 53000 | –
Cc1cc2nc(CN(C)C)ccc2c(-c2ccc3c4c(ccnc24)CCO3)c1[C@H](OC(C)(C)C)C(=O)O [Compound 20, (S)-2-tert-butoxy-2-((R)-5-(2,3-dihydropyrano[4,3,2-de]quinolin-7-yl)-2-((dimethylamino)methyl)-7-methylquinolin-6-yl)acetic acid] | – | 1740
Cc1cc2nc(CO)ccc2c(-c2ccc3c4c(ccnc24)CCO3)c1[C@H](OC(C)(C)C)C(=O)O [Compound 21, (S)-2-tert-Butoxy-2-((R)-5-(2,3-dihydropyrano[4,3,2-de]quinolin-7-yl)-2-(hydroxymethyl)-7-methylquinolin-6-yl)acetic acid] | 231 | –
Cc1cc2c(ccc(C)[n+]2[O-])c(-c2ccc3c4c(ccnc24)CCO3)c1[C@H](OC(C)(C)C)C(=O)O [Compound 22, (R)-6-((S)-tert-butoxy(carboxy)methyl)-5-(2,3-dihydropyrano[4,3,2-de]quinolin-7-yl)-2,7-dimethylquinoline 1-oxide] | 1080 | –
Cc1ccc2c(-c3ccc4c5c(ccnc35)CCO4)c([C@H](OC(C)(C)C)C(=O)O)c(C)cc2n1 [Compound 23, (S)-2-tert-Butoxy-2-((S)-5-(2,3-dihydropyrano[4,3,2-de]quinolin-7-yl)-2,7-dimethylquinolin-6-yl)acetic acid] | – | 26200
Cc1cc2nc(C(=O)O)ccc2c(-c2ccc(Cl)cc2)c1[C@H](OC(C)(C)C)C(=O)O [Compound 24, (S)-6-(tert-Butoxy(carboxy)methyl)-5-(4-chlorophenyl)-7-methylquinoline-2-carboxylic acid] | 29800 | –
Cc1cc2nc(CN(C)C)ccc2c(C2=CCCCC2)c1[C@H](OC(C)(C)C)C(=O)O [Compound 25, (S)-2-tert-butoxy-2-(5-cyclohexenyl-2-((dimethylamino)methyl)-7-methylquinolin-6-yl)acetic acid] | 346 | –
CCc1ccc2c(-c3ccc(Cl)cc3)c([C@H](OC(C)(C)C)C(=O)O)c(C)cc2n1 [Compound 26, (S)-2-tert-butoxy-2-(5-(4-chlorophenyl)-2-ethyl-7-methylquinolin-6-yl)acetic acid] | 45 | –
